For the assay, the target named is human TrkA (Homo sapiens (Human), UniProt P04629). Kind of assay: Human TrkA inhibition assay (Test Example 2). The class given is biochemical. Summed up:
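Recombinant TrkA (1 nmol/L) was preincubated 15 min at room temperature with compound in HEPES/MgCl2/DTT buffer, then reacted with FL-peptide 27 (1.5 μmol/L) and ATP (500 μmol/L) for 120 min at 37 °C. After EDTA stop, substrate phosphorylation was read by microfluidic mobility shift. IC50 came from logistic regression over 3-fold dilution series.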

The mark [1] stands for this setting: Table 155, human TrkA inhibition, read-out: IC50.
Where [2] appears, read: human TrkA 1 nmol/L, ATP 500 μmol/L, 120 min at 37° C., read-out: IC50 values (TrkA phosphorylation inhibition).
[3] abbreviates: Table 156, human TrkA inhibition, read-out: IC50.

IC50 data for 53 compounds are collected here from patent US10640495B2, “Heterocycle derivatives having TrkA inhibitory activity” (Shionogi & Co., Ltd., priority 2015, dated 2020).

Read-outs that look alike come from different tables or passages of the source. A value given as a limit tells only on which side of the number the result lay.

Sequence of human TrkA (P04629 440-796): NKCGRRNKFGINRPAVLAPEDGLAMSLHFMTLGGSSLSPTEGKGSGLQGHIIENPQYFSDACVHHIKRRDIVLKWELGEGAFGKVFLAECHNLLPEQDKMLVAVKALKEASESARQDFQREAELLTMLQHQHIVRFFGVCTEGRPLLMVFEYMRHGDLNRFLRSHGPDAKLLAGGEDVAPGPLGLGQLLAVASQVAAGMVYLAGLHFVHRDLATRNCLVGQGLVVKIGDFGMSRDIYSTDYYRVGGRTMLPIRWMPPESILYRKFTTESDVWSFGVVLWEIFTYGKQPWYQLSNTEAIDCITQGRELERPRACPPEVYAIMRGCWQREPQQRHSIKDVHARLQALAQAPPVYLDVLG

What is called IC50 is the concentration that inhibits the measured activity by half. `COCCN1C[C@@H](NC(=O)Nc2c(C)c(-c3cccc(CN=S(C)(C)=O)c3)nn2-c2ccccc2)[C@H](c2ccc(F)c(F)c2)O1` [Compound I-333]: the IC50 under setting [1] was below 100 nM.

`COCCN1C[C@@H](NC(=O)Nc2c(C)c(-c3ccc(N=S(C)(C)=O)nc3)nn2-c2ccccc2)[C@H](c2ccc(F)cc2)O1` [Compound I-334]: the IC50 under setting [1] was below 100 nM.

`COCCN1C[C@@H](NC(=O)Nc2c(C)c(-c3cnc4c(c3)nnn4C)nn2-c2ccccc2)[C@H](c2ccnc(F)c2)O1` [Compound I-342]: the IC50 under setting [1] was below 100 nM.

Take `COCCN1C[C@@H](NC(=O)Nc2c(C)c(N3CCN(C)C(=O)C3)nn2-c2ccccc2)[C@H](c2ccc(F)c(F)c2)O1` [Compound I-344]: under setting [2], the IC50 was determined as 0.97 nM.

For the compound `COCCN1C[C@@H](NC(=O)Nc2c(C)c(N3CCN(C)C(=O)C3)nn2-c2ccccc2)[C@H](c2ccc(F)cc2)O1` [Compound I-345], the half-inhibitory concentration (IC50) under setting [1] is below 100 nM.

`COCCN1C[C@@H](NC(=O)Nc2c(C)c(-c3ccc(N4CCC(NC(C)=O)C4)nc3)nn2-c2ccccc2)[C@H](c2ccnc(F)c2)O1` (some centres unmarked) [Compound I-349]: the IC50 under setting [1] was below 100 nM.

In the case of `COCCN1C[C@@H](NC(=O)Nc2c(C)c(-c3cnc4c(c3)CCC4O)nn2-c2ccccc2)[C@H](c2ccnc(F)c2)O1` (some centres unmarked) [Compound I-353], the IC50 under setting [1] was below 100 nM.

For `COCCN1C[C@@H](NC(=O)Nc2c(C)c(-c3cnc(C)nc3)nn2-c2ccccc2)[C@H](c2cnc(F)c(F)c2)O1` [Compound I-358], the IC50 under setting [1] was below 100 nM.

In the case of `COCCN1C[C@@H](NC(=O)Nc2c(C)c(-c3ccc4nc(C)nn4c3)nn2-c2ccccc2)[C@H](c2ccnc(F)c2)O1` [Compound I-359], the IC50 under setting [1] is below 100 nM.

Consider `COCCN1C[C@@H](NC(=O)Nc2c(C)c(-c3cnc(C)nc3)nn2-c2ccccc2)[C@H](c2cc(F)nc(F)c2)O1` [Compound I-361], for which the IC50 under setting [1] is below 100 nM.

Regarding `COCCN1C[C@H](NC(=O)Nc2c(C)c(-c3cnc(C)nc3)nn2-c2ccccc2)[C@@H](c2cc(F)nc(F)c2)O1` [Compound I-362], the IC50 under setting [1] was above 1000 nM.

For `COCCN1C[C@@H](NC(=O)Nc2c(C)c(-c3ccc4nc(C)nn4c3)nn2-c2ccccc2)[C@H](c2cnc(F)c(F)c2)O1` [Compound I-363], under setting [1], the IC50 was below 100 nM.

Regarding `CNC(=O)c1cc(-c2nn(-c3ccccc3)c(NC(=O)N[C@@H]3CN(CCOC)O[C@H]3c3ccc(F)c(F)c3)c2C)cnc1OC` [Compound I-391], under setting [1], the 50% inhibitory concentration (IC50) is below 100 nM.

In the case of `COCCN1C[C@@H](NC(=O)Nc2c(C)c(-c3cnc(OC)nc3)nn2-c2ccccc2)[C@H](c2ccc(F)c(F)c2)O1` [Compound I-407], the IC50 under setting [1] was below 100 nM.

As to `COCCN1C[C@@H](NC(=O)Nc2c(C)c(-c3cnc4c(c3)CN(C)C4=O)nn2-c2ccccc2)[C@H](c2ccc(F)cc2)O1` [Compound I-411], the IC50 under setting [1] is below 100 nM.

`COCCN1C[C@@H](NC(=O)Nc2c(C)c(-c3cnc4c(cnn4C)c3)nn2-c2ccccc2)[C@H](c2cnc(F)c(F)c2)O1` [Compound I-417]: the IC50 under setting [1] is below 100 nM.

For `COCCN1C[C@@H](NC(=O)Nc2c(C)c(-c3cnc(N4CC5(COC5)C4)nc3)nn2-c2ccccc2)[C@H](c2cnc(F)c(F)c2)O1` [Compound I-430], under setting [1], the IC50 is below 100 nM.

With `COCCN1C[C@@H](NC(=O)Nc2c(C)c(-c3cnn(C)c3)nn2-c2ccccn2)[C@H](c2ccc(F)c(F)c2)O1` [Compound I-447], under setting [1], the IC50 is below 100 nM.

On to `COCCN1C[C@@H](NC(=O)Nc2c(C)c(-c3cccnc3)nn2-c2ccccc2)[C@H](c2ccc(F)c(F)c2)O1` [Compound I-449], for which, under setting [1], the IC50 was below 100 nM.

As for `COCCN1C[C@@H](NC(=O)Nc2c(C)c(-c3cccc(N(C)C)c3)nn2-c2ccccc2)[C@H](c2ccc(F)c(F)c2)O1` [Compound I-450], the IC50 under setting [1] was below 100 nM.

`COCCN1C[C@@H](NC(=O)Nc2c(C)c(-c3ccc4nc(CO)cn4c3)nn2-c2ccccc2)[C@H](c2ccc(F)c(F)c2)O1` [Compound I-451]: the IC50 under setting [1] is below 100 nM.

With `CNC(=O)c1ccc(-c2nn(-c3ccccc3)c(NC(=O)N[C@@H]3CN(CCOC)O[C@H]3c3ccc(F)c(F)c3)c2C)cn1` [Compound I-458], the IC50 under setting [2] is 0.52 nM.

On to `COCCN1C[C@@H](NC(=O)Nc2c(C)c(-c3ccc4nccn4c3)nn2-c2ccccc2)[C@H](c2ccc(F)c(F)c2)O1` [Compound I-460], for which, under setting [1], the half-inhibitory concentration (IC50) is below 100 nM.

In the case of `COCCN1C[C@@H](NC(=O)Nc2c(C)c(-c3ccn4ccnc4c3)nn2-c2ccccc2)[C@H](c2ccc(F)c(F)c2)O1` [Compound I-461], the half-maximal inhibitory concentration (IC50) under setting [1] was below 100 nM.

For `COCCN1C[C@@H](NC(=O)Nc2c(C)c(-c3cnc4c(c3)OCCO4)nn2-c2ccccc2)[C@H](c2ccc(F)c(F)c2)O1` [Compound I-463], the half-maximal inhibitory concentration (IC50) under setting [1] was below 100 nM.

With `COCCN1C[C@@H](NC(=O)Nc2c(C)c(-c3cnc(OC4CCN(C)CC4)nc3)nn2-c2ccccc2)[C@H](c2ccc(F)c(F)c2)O1` [Compound I-464], under setting [1], the IC50 is below 100 nM.

As to `COCCN1C[C@@H](NC(=O)Nc2c(C)c(-c3ccncc3)nn2-c2ccccc2)[C@H](c2ccc(F)c(F)c2)O1` [Compound I-466], under setting [1], the half-maximal inhibitory concentration (IC50) is below 100 nM.

For the compound `COCCN1C[C@@H](NC(=O)Nc2c(C)c(-c3cnc4c(cnn4C)c3)nn2-c2ccccc2)[C@H](c2ccc(F)c(F)c2)O1` [Compound I-473], the IC50 under setting [1] is below 100 nM.

Turning to `COCCN1C[C@@H](NC(=O)Nc2c(C)c(-c3cnc(N4CCN(C(=O)OCc5ccccc5)CC4)nc3)nn2-c2ccccc2)[C@H](c2ccc(F)c(F)c2)O1` [Compound I-475], under setting [1], the IC50 was below 100 nM.

For `COCCN1C[C@@H](NC(=O)Nc2c(C)c(-c3cnn(C)c3)nn2Cc2ccccc2)[C@H](c2ccc(F)c(F)c2)O1` [Compound I-492], the IC50 under setting [1] was above 1000 nM.

As to `COCCN1C[C@@H](NC(=O)Nc2c(C)c(-c3cnn(C)c3)nn2CCO)[C@H](c2ccc(F)c(F)c2)O1` [Compound I-493], the half-maximal inhibitory concentration (IC50) under setting [1] was above 1000 nM.

As to `COCCN1C[C@@H](NC(=O)Nc2c(C)c(-c3cnn(C)c3)nn2CCN(C)C)[C@H](c2ccc(F)c(F)c2)O1` [Compound I-494], the half-maximal inhibitory concentration (IC50) under setting [1] is above 1000 nM.

With `COCCN1C[C@@H](NC(=O)Nc2c(C)c(-c3ccn(C)c(=O)c3)nn2-c2ccccc2)[C@H](c2ccc(F)c(F)c2)O1` [Compound I-497], the 50% inhibitory concentration (IC50) under setting [1] was below 100 nM.

In the case of `COCCN1C[C@@H](NC(=O)Nc2c(C)c(-c3ccc(=O)n(C)c3)nn2-c2ccccc2)[C@H](c2ccc(F)c(F)c2)O1` [Compound I-498], under setting [1], the concentration for half-maximal inhibition (IC50) was below 100 nM.

For the compound `COCCN1C[C@@H](NC(=O)Nc2c(C)c(OCC3CN(C(=O)OC(C)(C)C)CCO3)nn2-c2ccccc2)[C@H](c2ccnc(F)c2)O1` (some centres unmarked) [Compound I-499], under setting [1], the IC50 is below 100 nM.

`COCCN1C[C@@H](NC(=O)Nc2c(C)c(OCC3CNCCO3)nn2-c2ccccc2)[C@H](c2ccnc(F)c2)O1` (some centres unmarked) [Compound I-500]: the half-inhibitory concentration (IC50) under setting [1] is below 100 nM.

Turning to `COCCN1C[C@@H](NC(=O)Nc2c(C)c(OCC3CN(C(C)=O)CCO3)nn2-c2ccccc2)[C@H](c2ccnc(F)c2)O1` (some centres unmarked) [Compound I-504], under setting [1], the IC50 was below 100 nM.

Consider `COCCN1C[C@@H](NC(=O)Nc2c(C)c(OCC3CN(C)CCO3)nn2-c2ccccc2)[C@H](c2ccnc(F)c2)O1` (some centres unmarked) [Compound I-505], for which, under setting [1], the half-inhibitory concentration (IC50) was below 100 nM.

Take `COCCN1C[C@@H](NC(=O)Nc2c(C)c(-c3cnc(COC)nc3)nn2-c2ccccc2)[C@H](c2ccc(F)c(F)c2)O1` [Compound I-508]: the IC50 under setting [2] came out at 1.1 nM.

Consider `COCCN1C[C@@H](NC(=O)Nc2c(C)c(-c3ccc(OC)nc3)nn2-c2ccccc2)[C@H](c2ccnc(F)c2)O1` [Compound I-509], for which the half-inhibitory concentration (IC50) under setting [2] came out at 1.3 nM.

Regarding `COCCN1C[C@@H](NC(=O)Nc2c(C)c(-c3cnn(C)c3)nn2-c2cccc(F)c2)[C@H](c2ccc(F)c(F)c2)O1` [Compound I-510], the IC50 under setting [1] was below 100 nM.

Consider `COCCN1C[C@@H](NC(=O)Nc2c(C)c(-c3cnc(COC)nc3)nn2-c2ccccc2)[C@H](c2cnc(F)c(F)c2)O1` [Compound I-512], for which the IC50 under setting [1] is below 100 nM.

As to `COCCN1C[C@@H](NC(=O)Nc2c(C)c(-c3cnc(N4CC5CC(C4)O5)nc3)nn2-c2ccccc2)[C@H](c2cnc(F)c(F)c2)O1` [Compound I-514], the concentration for half-maximal inhibition (IC50) under setting [3] is below 100 nM.

As to `COCCN1C[C@@H](NC(=O)Nc2c(C)c(-c3ccc(OC)nc3)nn2-c2ccccc2)[C@H](c2ccc(F)c(F)c2)O1` [Compound I-516], the IC50 under setting [3] is below 100 nM.

With `COCCN1C[C@@H](NC(=O)Nc2c(C)c(C)nn2-c2ccccc2)[C@H](c2ccc(F)c(F)c2)O1` [Compound I-518], the IC50 under setting [3] was below 100 nM.

For `CCOc1nn(-c2ccccc2)c(NC(=O)N[C@@H]2CN(CCOC)O[C@H]2c2ccc(F)c(F)c2)c1C` [Compound I-519], the 50% inhibitory concentration (IC50) under setting [3] is below 100 nM.

On to `COCCN1C[C@@H](NC(=O)Nc2c(C)c(C)nn2-c2ccccc2)[C@H](c2cnc(F)c(F)c2)O1` [Compound I-520], for which the half-maximal inhibitory concentration (IC50) under setting [3] is below 100 nM.

Consider `COCCN1C[C@@H](NC(=O)Nc2c(C)c(C)nn2-c2ccccc2)[C@H](c2ccnc(F)c2)O1` [Compound I-521], for which the half-inhibitory concentration (IC50) under setting [3] was below 100 nM.

As to `COCCN1C[C@@H](NC(=O)Nc2c(C)c(-c3ccc(COC(C)=O)nc3)nn2-c2ccccc2)[C@H](c2ccc(F)c(F)c2)O1` [Compound I-531], the IC50 under setting [3] is below 100 nM.

Turning to `COCCN1C[C@@H](NC(=O)Nc2c(C)c(-c3ccc(CO)nc3)nn2-c2ccccc2)[C@H](c2ccc(F)c(F)c2)O1` [Compound I-533], the IC50 under setting [3] is below 100 nM.

For the compound `CCN1C[C@H](NC(=O)Nc2c(C)c(OCC3CCN(C)CC3)nn2-c2ccccc2)[C@@H](c2ccc(F)c(F)c2)O1` [Compound I-535], the 50% inhibitory concentration (IC50) under setting [3] was above 1000 nM.

As for `CCN1C[C@@H](NC(=O)Nc2c(C)c(OCC3CCN(C)CC3)nn2-c2ccccc2)[C@H](c2ccc(F)c(F)c2)O1` [Compound I-536], under setting [2], the IC50 was found to be 4 nM.

Turning to `CCN1C[C@@H](NC(=O)Nc2c(C)c(OCC3CNCCO3)nn2-c2ccccc2)[C@H](c2ccc(F)c(F)c2)O1` (some centres unmarked) [Compound I-537], the IC50 under setting [3] was below 100 nM.
